According to patent US3995044A, “Pyridine carboxylic acid amides for mycobacterium infections” (priority 1974, dated 1976):
In brackets after ≈: the same amount, converted by molar mass.

Experiments:
[1] = test system: "Atypical mycobacteria" Runyon Grouping 2; assay: Anti-mycobacterial spectrum of action (MIC), atypical mycobacteria Runyon grouping 2; type: cell-based; conditions: modified Difco-Tb-Bouillon
[2] = test system: "Atypical mycobacteria" Runyon Grouping 4; assay: Anti-mycobacterial spectrum of action (MIC), atypical mycobacteria Runyon grouping 4; type: cell-based; conditions: modified Difco-Tb-Bouillon
[3] = test system: "Atypical mycobacteria" Runyon Grouping 1; assay: Anti-mycobacterial spectrum of action (MIC), atypical mycobacteria Runyon grouping 1; type: cell-based; conditions: modified Difco-Tb-Bouillon
[4] = test system: Mycobacterium tuberculosis H37Rv; assay: MIC in modified Difco-Tb-Bouillon, normally sensitive strain; type: cell-based
M. bovis Ravenal = assay: microbe, parasite or virus in culture; type: cell-based; conditions: Mycobacterium tuberculosis variant bovis, read-out: MIC, M. bovis Ravenal
[5] = test system: "Atypical mycobacteria" Runyon Grouping 3; assay: Anti-mycobacterial spectrum of action (MIC), atypical mycobacteria Runyon grouping 3; type: cell-based; conditions: modified Difco-Tb-Bouillon
[6] = test system: Mycobacterium tuberculosis H37Rv; assay: Minimum inhibitory concentration on Lowenstein-Jensen egg medium, normally sensitive test strain; type: cell-based; conditions: per ml of nutrient medium
[7] = test system: Mycobacterium tuberculosis H37Rv; assay: In vivo action in mice infected with tuberculosis (Tb germ count in spleen); parameters: species or system white mice (CFI breed); conditions: once daily, 2 weeks (5 times per week); for In vivo action, index of reduction in Tb germs, Tb-mice, orally: 100 mg/kg orally; for In vivo action, index of reduction in Tb germs, Tb-mice, subcutaneously: 100 mg/kg subcutaneously
Experimental: (§1) The animal experiments were above all carried out with white mice (CFI breed, Winkelmann, Kirchborchen) infected with Mycobacterium tuberculosis H37Rv. After intravenous infection with 10^4 -10^5 germ units/mouse, an oral or subcutaneous treatment was carried out once daily for a period of 2 weeks (that is to say 5 times per week). At predetermined intervals of time (11th, 14th and 17th day after infection) mice from the treatment groups were killed, the spleens were removed and standardised smear preparations were produced from the homogenate; the tubercle germ content in these was evaluated by means of fluorescence microscopy. […] The values obtained are grouped together in 5 rating groups and give a germ count index; the indices denote the following:
(§2) Index 0 corresponds to a reduction in the germ count of
(§3) Index 1 corresponds to a reduction in the germ count of
(§4) Index 2 corresponds to a reduction in the germ count of
(§5) >40-70% = distinct action
(§6) Index 3 corresponds to a reduction in the germ count of
Index 4 corresponds to a reduction in the germ count of […]

[8] = test system: Mycobacterium tuberculosis H37Rv; assay: In vivo action in guinea pigs infected with tuberculosis (Tb germ count in lung); conditions: 30 mg/kg orally, once daily from 14th day, 3 weeks (5 times per week)
Experimental: as §1, §2, §3, §4, §5, §6
Index 4 corresponds to a reduction in the germ count of
In addition to the experiments on mice infected with tuberculosis, experiments were carried out analogously on guinea pigs. In this case, the germ count was determined on the lung homogenate. The animals were infected subcutaneously intrainguinally with Mycobacterium tuberculosis H37Rv and were subjected to therapy once daily from the 14th day after infection over a period of 3 weeks, that is to say 5 times per week. The germ counts were determined in the 4th, 5th and 6th week after infection.

[9] = Table 2, read-out: MIC, normally sensitive H37Rv (Table 2)
[10] = Table 3, read-out: MIC, M. tuberculosis H37Rv (Table 3)

SMILES | MIC [1] [µg/mL] | MIC [2] [µg/mL] | MIC [3] [µg/mL] | MIC [4, 9] [µg/mL] | MIC [4, 10] [µg/mL] | MIC (M. bovis Ravenal) [µg/mL] | MIC [5] [µg/mL] | MIC [6] [µg/mL] | In vivo action, index of reduction in Tb germs, Tb-mice, orally [7] | In vivo action, index of reduction in Tb germs, Tb-mice, subcutaneously [7] | In vivo action, index of reduction in Tb germs, Tb-guinea pigs, orally [8]
O=C(NCc1ccccn1)c1cc([N+](=O)[O-])cc([N+](=O)[O-])c1 [Example 1, N-(pyrid-2-ylmethyl)-3,5-dinitrobenzoic acid amide] | 6.2 (≈ 20.5 µM) | 6.2 (≈ 20.5 µM) | 6.2 (≈ 20.5 µM) | 1.6 (≈ 5.29 µM) | 1.6 (≈ 5.29 µM) | 3.1 (≈ 10.3 µM) | 50 (≈ 165 µM) | 1 (≈ 3.31 µM) | 4 (reduction in the germ count of >90% = very good action) | 3 (reduction in the germ count of >70-90% = good action) | 4 (reduction in the germ count of >90% = very good action)
O=C(NCc1cnc2ccccc2c1)c1cc([N+](=O)[O-])cc([N+](=O)[O-])c1 [Example 9] | 3.1 (≈ 8.8 µM) | 1.6 (≈ 4.54 µM) | 3.1 (≈ 8.8 µM) | 0.2 (≈ 0.568 µM) | 0.2 (≈ 0.568 µM) | 0.4 (≈ 1.14 µM) | > 100 | 2 (≈ 5.68 µM) | 1 (reduction in the germ count of >20-40% = trace action) | 1 (reduction in the germ count of >20-40% = trace action) | 4 (reduction in the germ count of >90% = very good action)
O=C(NCCc1ccccn1)c1cc([N+](=O)[O-])cc([N+](=O)[O-])c1 [Example 10] | – | – | – | – | – | – | – | 1 (≈ 3.16 µM) | 2 (reduction in the germ count of >40-70% = distinct action) | 2 (reduction in the germ count of >40-70% = distinct action) | 3 (reduction in the germ count of >70-90% = good action)
O=C(NCc1cccnc1)c1cc([N+](=O)[O-])cc([N+](=O)[O-])c1 [Example 12] | – | – | – | – | – | – | – | 32 (≈ 106 µM) | 2 (reduction in the germ count of >40-70% = distinct action) | 2 (reduction in the germ count of >40-70% = distinct action) | 3 (reduction in the germ count of >70-90% = good action)
O=C(NCc1ccncc1)c1cc([N+](=O)[O-])cc([N+](=O)[O-])c1 [Example 13] | – | – | – | – | – | – | – | 32 (≈ 106 µM) | 3 (reduction in the germ count of >70-90% = good action) | 2 (reduction in the germ count of >40-70% = distinct action) | 4 (reduction in the germ count of >90% = very good action)
Cc1cccc(CNC(=O)c2cc([N+](=O)[O-])cc([N+](=O)[O-])c2)n1 [Example 14] | 12.5 (≈ 39.5 µM) | 12.5 (≈ 39.5 µM) | 6.2 (≈ 19.6 µM) | 3.1 (≈ 9.8 µM) | 3.1 (≈ 9.8 µM) | 3.1 (≈ 9.8 µM) | 25 (≈ 79 µM) | – | – | – | –
O=C(NCc1ccc2ccccc2n1)c1cc([N+](=O)[O-])cc([N+](=O)[O-])c1 [Example 15] | 6.2 (≈ 17.6 µM) | 1.6 (≈ 4.54 µM) | 1.6 (≈ 4.54 µM) | 0.2 (≈ 0.568 µM) | 0.2 (≈ 0.568 µM) | 0.8 (≈ 2.27 µM) | 1.6 (≈ 4.54 µM) | 1 (≈ 2.84 µM) | 3 (reduction in the germ count of >70-90% = good action) | 2 (reduction in the germ count of >40-70% = distinct action) | 3 (reduction in the germ count of >70-90% = good action)
O=C(NCC1CCCO1)c1cc([N+](=O)[O-])cc([N+](=O)[O-])c1 (stereo not shown) [Example 20] | 6.2 (≈ 21 µM) | 6.2 (≈ 21 µM) | 6.2 (≈ 21 µM) | 1.6 (≈ 5.42 µM) | 1.6 (≈ 5.42 µM) | 3.1 (≈ 10.5 µM) | 100 (≈ 339 µM) | – | – | – | –
O=C(NCC1CCC=CO1)c1cc([N+](=O)[O-])cc([N+](=O)[O-])c1 (stereo not shown) [Example 22] | 1.6 (≈ 5.21 µM) | 1.6 (≈ 5.21 µM) | 1.6 (≈ 5.21 µM) | 0.4 (≈ 1.3 µM) | 0.4 (≈ 1.3 µM) | 3.1 (≈ 10.1 µM) | > 100 | – | – | – | –
CC(NC(=O)c1cc([N+](=O)[O-])cc([N+](=O)[O-])c1)c1ccccn1 (stereo not shown) [Example 29] | 3.1 (≈ 9.8 µM) | 3.1 (≈ 9.8 µM) | 3.1 (≈ 9.8 µM) | 1.6 (≈ 5.06 µM) | 1.6 (≈ 5.06 µM) | 3.1 (≈ 9.8 µM) | 100 (≈ 316 µM) | 2 (≈ 6.32 µM) | 4 (reduction in the germ count of >90% = very good action) | 3 (reduction in the germ count of >70-90% = good action) | –
